Source: patent US20140162974A1, “METHODS FOR MODULATION OF PHOSPHORUS AND FGF23” (Luitpold Pharmaceuticals, Inc., priority 2012, published 2014)
Entries after “also recorded” stand apart in the source; their conditions may differ.

How the values were obtained:
Assay type in all cases: in vivo, human
Phosphorus = experiment: VIT-23 study: phosphorus at study visits
Experimental: (§1) Subjects with a hemoglobin (Hgb) that meets inclusion requirements and no exclusionary criteria will be offered participation in this 5-6 week study.
(§2) During the Treatment Phase, all subjects received a maximum dose of 1000 mg of IV iron. […] If no reaction occurred, the remainder of the dose (up to 15 mg/kg or 1000 mg including the test dose) was given as per Investigator. The infusion was given only when resuscitative techniques for the treatment of anaphylactic and anaphylactoid reactions were readily available.
(§3) Primary Endpoints included changes in blood and urine markers of phosphate and bone metabolism following IV iron administration. Blood markers include (all performed in morning after 10 hr fast): Serum Phosphate; Serum Potassium; Plasma Fibroblast growth factor 23 via 2nd generation Immutopics C-terminal assay; Serum Vitamin D; 1, 25 dihydroxy Vitamin D (1,25 [OH]2D); 25 hydroxy Vitamin D (250H-D); Serum Osteocalcin; Serum Bone-specific Alkaline phosphatase; Plasma intact Parathyroid hormone; Serum creatinine; Hepcidin; Reticulocyte count; Hemoglobin; Ferritin; Transferrin Saturation (TSAT); and Sample for archive. Urine markers (collected over a 3 hour period in the morning) (ratio of phosphate to creatinine determined to offset inter-patient variability in urine concentration) include: Phosphate; Creatinine; Calcium; Amino acids; Glucose; Albumin; Deoxypyridinoline cross link (Dpd)—a collagen type I cross link that indicates bone resorption; Beta-2-microglobulin; and Sample for archive.
(§4) All subjects had laboratory assessments at Screening, Day 0, Day 1 (24 hrs), Day 7, Day 14, and Day 35. Any subject with a change in phosphate value after Day 0 had additional phosphate measurements at 14 day intervals (following Day 35) until the level returned to normal (as defined by the laboratory reference range). Safety evaluation for all subjects included adverse events, physical examination, including vital signs, and laboratory assessments. Three hour urine collections was also performed on Day 0, Day 1 (24 hrs), Day 7, Day 14, and Day 35. Any subject who withdrew from the study will receive a follow up phone call 30 days after they received study drug.
(§5) The “baseline” was the value at Day 0 prior to administration of any study drug. The value of “n” for the baseline measurement may have be different at each study visit because the baseline values were assessed only for those individuals with data at the given visit.

FGF-23 C-Terminal = experiment: VIT-23 study: plasma FGF-23 C-terminal assay
Experimental: as §1, §2, §3, §4, §5

intact FGF23 (iFGF23) = experiment: Example 3 trial: serum intact FGF23; conditions: for effect on iFGF23 levels: by day 1 (24 hours); for Intact FGF23, Day 1 / Intact FGF23, Day 7 / Intact FGF23, Day 14 / Intact FGF23, Day 35: mean ± standard error, unit from the 3rd table
Experimental: Study visits were on Days 0 (when iron was infused), 1 (24 hours after iron infusion), 7, 14, and 35. The primary objectives were to determine the effect of iron deficiency on cFGF23 and iFGF23 levels and the effect of intravenous iron on iFGF23 and cFGF23 levels.
Randomization occurred centrally via a fax-based system. […] The complete dose was infused over 15 minutes on day 0. […] An initial test dose of 25 mg was administered slowly over 5 minutes.
Laboratory testing of blood and three-hour urine collections was performed at the screening visit and on study days 0 (when iron was infused), 1 (24 hours after iron infusion), 7, 14, and 35 (see e.g., FIG. 2A). Any subject who experienced a reduction in serum phosphate below the normal range after day 0 underwent additional phosphate measurements at 14 day intervals following day 35 until the level returned to the normal reference range. Safety evaluations of all subjects included ascertainment of adverse events, physical examinations at all study visits, and laboratory assessments. Any subject who withdrew from the study received a follow-up phone call to ascertain adverse events 30 days after they received study drug.
Blood and urine samples were sent to a central laboratory for analysis (Covance Central Laboratory Service, Indianapolis, Ind.). Hemoglobin, blood counts, iron indices, electrolytes, and serum and urinary phosphate and creatinine were measured with standard, automated, multi-analyte techniques. Urinary fractional excretion of phosphate (FEPi) was calculated from the three-hour, morning urine collections as urinary phosphate x serum creatinine/serum phosphate x urinary creatinine. Serum levels of 25-hydroxyvitamin D and 1,25-dihydroxyvitamin D were measured in duplicate by radioimmunoassay (DiaSorin, Stillwater, Minn.) with intra-assay coefficients of variation (CV)<11.6%. Plasma C-terminal FGF23 (cFGF23) was measured in duplicate in EDTA-plasma samples using a human FGF23 immunometric assay capable of detecting both the intact peptide and its C-terminal fragments (Immutopics, San Clemente, Ca) with intra-assay CV≦3.8%. Because cFGF23 testing was performed in parallel with rolling enrollment and follow-up, all cFGF23 assay plates tested combinations of baseline and post-intervention samples from multiple study participants. Serum intact FGF23 (iFGF23) was measured in batches of baseline and post-intervention samples from multiple study participants at study end using an immunometric assay that detects the intact peptide exclusively (Kyowa Medex Company, Shizuoka, Japan) with intra-assay CV<2.7%. Serum hepcidin levels were measured on days 0, 7, and 35 using an enzyme-linked immunosorbent assay (Intrinsic LifeSciences, La Jolla, Calif.) with intra-assay CV≦19%. Urinary amino acids, glucose, albumin, and beta 2 microglobulin were measured to test for the possibility of global proximal tubular dysfunction. Urinary deoxypyridinoline cross link, and serum osteocalcin and bone-specific alkaline phosphatase were measured to assess bone turnover.
Baseline characteristics are presented as mean±standard error for continuous variables and as proportions for categorical variables. The association between iron indices and baseline and change in FGF23 levels was assessed with Spearman correlations. Restricted maximum likelihood-based repeated measures analyses (linear mixed models) that considered the effects of treatment, visit, and treatment x time interaction, with baseline values treated as a fixed covariate were used for the primary analyses of mean changes from baseline in continuous markers of phosphate homeostasis. The models employed unstructured covariance structures without imputing missing values. All outcome variables that were not normally distributed were analyzed after natural log-transformation. […]

[1] = Day 7 after single IV dose up to 1000 mg iron
[2] = Day 14 after single IV dose up to 1000 mg iron
[3] = Day 35 after single IV dose up to 1000 mg iron

Row | Substance | Phosphorus, Visit, Mean (Phosphorus; [1]) | Phosphorus, Change to Visit, Max (Phosphorus; Day 7 vs baseline) | Phosphorus, Change to Visit, Mean (Phosphorus; Day 7 vs baseline) | Phosphorus, Change to Visit, Median (Phosphorus; Day 7 vs baseline) | Phosphorus, Change to Visit, Min (Phosphorus; Day 7 vs baseline) | Phosphorus, Visit, Mean (Phosphorus; [2]) | Phosphorus, Change to Visit, Max (Phosphorus; Day 14 vs baseline) | Phosphorus, Change to Visit, Mean (Phosphorus; Day 14 vs baseline) | Phosphorus, Change to Visit, Median (Phosphorus; Day 14 vs baseline) | Phosphorus, Change to Visit, Min (Phosphorus; Day 14 vs baseline) | Phosphorus, Visit, Mean (Phosphorus; [3]) | Phosphorus, Change to Visit, Max (Phosphorus; Day 35 vs baseline) | Phosphorus, Change to Visit, Mean (Phosphorus; Day 35 vs baseline) | Phosphorus, Change to Visit, Median (Phosphorus; Day 35 vs baseline) | Phosphorus, Change to Visit, Min (Phosphorus; Day 35 vs baseline) | FGF-23 C-Terminal, EDTApl-RUO, Visit, Mean (FGF-23 C-Terminal; Day 1) | FGF-23 C-Terminal, EDTApl-RUO, Change to Visit, Mean (FGF-23 C-Terminal; Day 1 vs baseline) | FGF-23 C-Terminal, EDTApl-RUO, Visit, Mean (FGF-23 C-Terminal; Day 7) | FGF-23 C-Terminal, EDTApl-RUO, Change to Visit, Mean (FGF-23 C-Terminal; Day 7 vs baseline) | FGF-23 C-Terminal, EDTApl-RUO, Visit, Mean (FGF-23 C-Terminal; Day 14) | further results
1 | iron dextran [reference compound] | 3.55 mg/dL | 1.2 mg/dL | -0.07 mg/dL | -0.1 mg/dL | -0.9 mg/dL | 3.58 mg/dL | 1.4 mg/dL | -0.06 mg/dL | 0.1 mg/dL | -1.5 mg/dL | 3.55 mg/dL | 1.3 mg/dL | -0.08 mg/dL | -0.1 mg/dL | -1.3 mg/dL | 151.60 RU/mL | −716.03 RU/mL | 114.13 RU/mL | −682.42 RU/mL | 107.39 RU/mL | FGF-23 C-Terminal, EDTApl-RUO, Change to Visit, Mean (FGF-23 C-Terminal; Day 14 vs baseline): −733.96 RU/mL; FGF-23 C-Terminal, EDTApl-RUO, Visit, Mean (FGF-23 C-Terminal; Day 35): 360.71 RU/mL; FGF-23 C-Terminal, EDTApl-RUO, Change to Visit, Mean (FGF-23 C-Terminal; Day 35 vs baseline): −683.57 RU/mL; FGF-23 C-Terminal, EDTApl-RUO, Visit, Mean (FGF-23 C-Terminal; Minimum post-baseline value): 94.00 RU/mL; FGF-23 C-Terminal, EDTApl-RUO, Change to Visit, Mean (FGF-23 C-Terminal; Minimum value vs baseline): −732.67 RU/mL; Intact FGF23, Change from baseline (intact FGF23 (iFGF23); Day 1): −13.4%; Intact FGF23, Change from baseline (intact FGF23 (iFGF23); Day 7): −4.4%; Intact FGF23, Change from baseline (intact FGF23 (iFGF23); Day 14): −1.3%; Intact FGF23, Change from baseline (intact FGF23 (iFGF23); Day 35): −9.3%; effect on iFGF23 levels (intact FGF23 (iFGF23)): no significant changes; also recorded: but not iron dextran induced a significant increase; Intact FGF23, Day 1 (intact FGF23 (iFGF23)): 24.6 ± 1.9 pg/mL; Intact FGF23, Day 7 (intact FGF23 (iFGF23)): 27.5 ± 1.7 pg/mL; Intact FGF23, Day 14 (intact FGF23 (iFGF23)): 28.4 ± 2.1 pg/mL; Intact FGF23, Day 35 (intact FGF23 (iFGF23)): 28.3 ± 1.7 pg/mL
2 | polynuclear iron (III)-hydroxide 4(R)-(poly-(1→4)-O-α-glucopyranosyl)-oxy-2(R),3(S),5(R),6-tetrahydroxy-hexanoate [FCM] | 2.51 mg/dL | 0.7 mg/dL | -0.87 mg/dL | -0.8 mg/dL | -2.3 mg/dL | 3.42 mg/dL | 0.7 mg/dL | -0.92 mg/dL | -0.7 mg/dL | -3.5 mg/dL | 3.92 mg/dL | 1.0 mg/dL | -0.38 mg/dL | -0.2 mg/dL | -1.9 mg/dL | 176.80 RU/mL | −648.30 RU/mL | 165.23 RU/mL | −699.73 RU/mL | 170.12 RU/mL | FGF-23 C-Terminal, EDTApl-RUO, Change to Visit, Mean (FGF-23 C-Terminal; Day 14 vs baseline): −584.59 RU/mL; FGF-23 C-Terminal, EDTApl-RUO, Visit, Mean (FGF-23 C-Terminal; Day 35): 141.56 RU/mL; FGF-23 C-Terminal, EDTApl-RUO, Change to Visit, Mean (FGF-23 C-Terminal; Day 35 vs baseline): −692.29 RU/mL; FGF-23 C-Terminal, EDTApl-RUO, Visit, Mean (FGF-23 C-Terminal; Minimum post-baseline value): 98.73 RU/mL; FGF-23 C-Terminal, EDTApl-RUO, Change to Visit, Mean (FGF-23 C-Terminal; Minimum value vs baseline): −684.57 RU/mL; Intact FGF23, Change from baseline (intact FGF23 (iFGF23); Day 1): 128.0%; Intact FGF23, Change from baseline (intact FGF23 (iFGF23); Day 7): 91.8%; Intact FGF23, Change from baseline (intact FGF23 (iFGF23); Day 14): 59.1%; Intact FGF23, Change from baseline (intact FGF23 (iFGF23); Day 35): 2.0%; effect on iFGF23 levels (intact FGF23 (iFGF23)): increased significantly by day 1; also recorded: significant increase; Intact FGF23, Day 1 (intact FGF23 (iFGF23)): 65.2 ± 8.0 pg/mL; Intact FGF23, Day 7 (intact FGF23 (iFGF23)): 54.9 ± 18.0 pg/mL; Intact FGF23, Day 14 (intact FGF23 (iFGF23)): 45.8 ± 6.9 pg/mL; Intact FGF23, Day 35 (intact FGF23 (iFGF23)): 28.1 ± 2.9 pg/mL; iFGF23 in FCM subjects who developed serum phosphate<2.0 mg/dL vs the remaining (intact FGF23 (iFGF23); stratified analysis): greater iFGF23 by day 1 that persisted through day 14
